Experimental data taken from patent publication US12458622B2, “Methods of treatment of coronavirus-induced inflammation conditions” (priority 2020, dated 2025).

Tests used:
[1] = tested on: HMC3 human microglia cells; experiment: MSD U-PLEX cytokine secretion induced by TNF-α; type: cell-based; conditions: TNF-α induced, 24 hr; for inhibition at 3 µM: Homo sapiens, HMC3
Description: (§1) Human microglial cell line HMC3 (CRL-3304) was purchased from ATCC (American Type Culture Collection). HMC3 cell line was cultured in DMEM medium with 10% FBS, 1% L-glutamine, and 1% penicillin/streptomycin. Cells were maintained in 37° C. incubator at 5% CO2.
(§2) HMC3 cells were resuspended, counted using the LUNA-II Automated Cell Counter, seeded in the 6-well plate (400 K cells/2 mL medium/well), and incubated overnight to allow cells to attach. The media and detached cells were removed next day. The cell layer was washed three times in PBS and once in serum- and phenolred-free DMEM (SPFM). […] The conditioned medium was collected and centrifuged at 1,000×RCF (g) for 5 min to pellet detached cells and large debris, which was subsequently passed through a 0.22 μm filter with PVDF membrane to remove smaller debris. Samples of the supernatant medium were put in a CoolRack (#07210041, Fisher Scientific) on dry ice for Snap-freezing and kept at −80° C. until use.
(§3) Meso-scale U-PLEX plates that detect a cytokine panel including IL-1β, IL-2, IL-4, IL-6, IL-8, IL-10, IFN-γ, TNF-α, and a chemokine panel including IP-10/CXCL10, MCP-1/CCL2, MIP-1α/CCL3, MIP-1P/CCL4, Eotaxin/CCL11, were used as per manufacture's protocol. 25 μL of the conditioned medium was used in each well of the MSD plates to detect the analytes. The plates were then analyzed on an MSD QuickPlex SQ120 instrument.
(§4) All the data were presented as mean±standard error from at least three times, each done in triplicate. The statistical significance between two groups was determined by Student's t test, whereas the comparisons of multiple groups were carried out by one-way ANOVA, followed by Bonferroni's post-test using GraphPad Prism 7 (GraphPad Software, Inc.). A probability value of * p<0.05 was considered to be significant.

[2] = tested on: HMC3 human microglia cells; experiment: Cell viability assay by AO/PI stain; type: cell-based; conditions: 0.3 μM, TNF-α 0.3 μg/mL
Description: as §1
HMC3 cells were resuspended, counted using the LUNA-II Automated Cell Counter, seeded in the 6-well plate (300 K cells/2 mL medium/well), and incubated overnight to allow cells to attach. Cells were treated with TNF-α or IFN-γ at five different concentrations (0, 10, 30, 100, 300 ng/mL) for 24 hr to induce cell activation. The supernatant medium was completely aspirated and 1 mL of fresh DMEM was added to wash the cell layer to remove detached cells and debris. The attached cells were resuspended and washed with PBS. Cells were washed with FACS buffer (2% FBS in PBS) prior to incubation with Zombie Violet Fixable Viability Dye (#423114, Biolegend, 1:500 dilution) and Human Fe Receptor Blocking Solution (#422302, Biolegend, 1:20) diluted in FACS buffer at RT for 10 min in the dark. Cells were then washed with FACS buffer and incubated at RT for 20 min with the following cell-surface antibodies: FITC anti-MHC II (#361706, Biolegend), PerCP/Cy5.5 anti-CD11b (#301328, Biolegend), BV605 anti-CD40 (#334336, Biolegend), PE anti-CD86 (#374206, Biolegend), PE/Cy7 anti-CD163 (#326514, Biolegend), APC anti-CD206 (#321110, Biolegend), and PerCP/Cy5.5 anti-CD14 (#367110, Biolegend). All of the cell-surface antibodies were diluted 1:20 in FACS buffer. Cells were permeabilized using the Transcription Factor Fixation/Permeabilization Buffer Set (#424401, Biolegend). Then cells were incubated with the following intracellular antibodies: APC/Cy7 anti-CD68 (#333822, Biolegend), purified anti-IBA1 (#PA5-27436, Invitrogen), Goat anti-Rabbit-Alexa Fluor 647 (#A21245, Invitrogen), purified anti-GFAP (#644702, Biolegend), and Goat anti-Mouse-Alexa Fluor 488 (#11029, Invitrogen). All of the intracellular antibodies were diluted 1:100 in the Permeabilization buffer (lx). Cells were washed with Permeabilization buffer and fixed in Fixation Buffer (#420801, Biolegend). Flow cytometry was performed using the Attune NxT Acoustic Focusing Cytometer (Thermo Fisher Scientific). Analysis of flow cytometry data was performed via FCS Express 7 (DeNovo Software).
Cell viability was assessed with a LUNA-FL Automated fluorescence cell counter. Viable nucleated cells show green fluorescence and dying nucleated cells show red fluorescence. 18 µL of sample was mixed with 2 μL Acridine Orange/Propidium Iodide (AO/PI) Stain.
as §4

Rhesus Monkeys = conditions: cited from earlier work
TgSOD1^G93A mice = experiment: Meso Scale Discovery multi-spot cytokine assay in spinal cord and plasma of TgSOD1 mice; conditions: 6.3 mg/kg i.p.
[3] = tested on: HMC3 human microglia cells; experiment: MSD U-PLEX chemokine secretion induced by TNF-α; type: cell-based; conditions: 0.3 μg/mL TNF-α, 24 hours; for inhibition at 3 µM: Homo sapiens, HMC3
Description: as §1, §2, §3, §4

Stump-tailed Monkeys = conditions: 20 mg cromolyn and lactose capsules, 4, 16 and 72 capsules/day, 17 weeks; cited from earlier work
[4] = tested on: BV2 cells stably expressing CD33 (BV2-CD33WT); experiment: Aβ42 uptake, ELISA; type: cell-based; conditions: 16 hours pretreatment then 2 hours with Aβ42, vs DMSO
[5] = TgSOD1-Cromolyn vs TgSOD1-Vehicle, p=0.0273

For O=C(O)c1cc(=O)c2c(OCC(O)COc3cccc4oc(C(=O)O)cc(=O)c34)cccc2o1 [cromolyn], the IFN-γ concentration ([1]; 0.3 μM) was “decreased”, the IL-1β concentration ([1]; 0.3 μM) was “decreased” and the IL-6 concentration ([1]; 0.3 μM) was “decreased”. The IL-8 concentration ([1]; 0.3 μM) was “decreased”, the inhibition at 3 µM ([1]; read-out: inhibition of IFN-γ) was over 40% and the inhibition at 3 µM ([1]; read-out: inhibition of IL-1β) was over 40%. The inhibition at 3 µM ([1]; read-out: inhibition of IL-6) was over 40%, the inhibition at 3 µM ([1]; read-out: inhibition of IL-8) was 25.8% and the “TNF-α induced cell death” value [2] was “significantly reduced cell death”. The Mortality (Rhesus Monkeys; single IV dose of 5, 50, 500, 1000 mg/kg, 7-day observation) was “There were no mortalities”, the “Clinical signs and weight” value (Rhesus Monkeys; single IV dose, at 500 and 1000 mg/kg) was “Slight ataxia and weight” and the “IL-10 level in plasma” value (TgSOD1^G93A mice; TgSOD1-Cromolyn vs TgSOD1-Vehicle, p=0.0095) was “significantly decreased”. The “IL-2 level in plasma” value (TgSOD1^G93A mice; TgSOD1-Cromolyn vs TgSOD1-Vehicle, p=0.0211) was “significantly decreased”, the “IL-6 level in plasma” value (TgSOD1^G93A mice; [5]) was “significantly decreased” and the “TNFα level in spinal cord” value (TgSOD1^G93A mice; [5]) was “significant decrease”. For the same compound, the “TNFα level in plasma” value (TgSOD1^G93A mice; TgSOD1-Cromolyn vs TgSOD1-Vehicle, p=0.110) was “trend towards a decrease”, the “IL-13 level in plasma” value (TgSOD1^G93A mice; between groups, FIG. 2A) was “no statistically significant difference” and the “IL-5 level in plasma” value (TgSOD1^G93A mice; between groups, FIG. 2C) was “no statistically significant difference”. The “extracellular IP-10 (CXCL10)” value ([3]; 0.3 μM) was “statistically significant reduction”, the “extracellular MCP-1 (CCL2)” value ([3]; 0.3 μM) was “statistically significant reduction” and the “extracellular MIP-1α (CCL3)” value ([3]; 0.3 μM) was “statistically significant reduction”. For the same compound, the “extracellular MIP-1β (CCL4)” value ([3]; 0.3 μM) was “statistically significant reduction”, the inhibition at 3 µM ([3]; read-out: inhibition of IP-10 (CXCL10)) was over 40% and the inhibition at 3 µM ([3]; read-out: inhibition of MCP-1 (CCL2)) was over 40%. For the same compound, the inhibition at 3 µM ([3]; read-out: inhibition of MIP-1α (CCL3)) was 35.6%, the inhibition at 3 µM ([3]; read-out: inhibition of MIP-1β (CCL4)) was over 40% and the Body weight (Stump-tailed Monkeys) was “Some weight loss”. The “Internalized Aβ42” value [4] was “increased levels of internalized Aβ42”.
